pIC50, pKd: −log10 of the molar value. Like-named read-outs stand apart in the source and are kept apart here.
Columns and labels:
[1] = molecular target: GDP-bound KRAS wild-type protein (Homo sapiens, UniProt P01116); assay: Binding to KRAS by surface plasmon resonance (SPR), dissociation constant KD
Procedure, shortened: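 GDP-loaded biotinylated Avi-tag RAS proteins (E. coli-expressed) captured on a Biotin CAPture chip at ~100–300 RU; single-cycle kinetics at 30°C, 100 µL/min, 75 s injections of rising compound concentrations. HBS pH 7.4 running buffer with 1 mM DTT, 10 mM MgCl2, 10 µM GDP, 4% DMSO. KD from 1:1 binding fit.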

[2] = tested on: human lung cancer strain NCI-H441; assay: NCI-H441 cell proliferation inhibitory activity (CellTiter-Glo, 4 days); type: cell-based; settings: read-out: NCl-H441 IC50
Procedure, shortened: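 Step one: dispense the test compound in serial DMSO dilutions. Step three: add the reagent and measure […].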

[3] = molecular target: HRAS wild-type protein (Homo sapiens, UniProt P01112); assay: Binding to HRAS by surface plasmon resonance (SPR), KD and KD ratio to KRAS
Chain of HRAS wild-type protein (P01112 whole entry): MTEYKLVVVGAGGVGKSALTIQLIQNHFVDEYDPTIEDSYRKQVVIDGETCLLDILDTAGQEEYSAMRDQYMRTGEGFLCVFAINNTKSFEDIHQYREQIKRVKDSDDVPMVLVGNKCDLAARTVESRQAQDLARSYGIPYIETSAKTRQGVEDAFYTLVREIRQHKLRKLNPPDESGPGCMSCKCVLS
Procedure, shortened: (§1)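 Biotinylated GDP-bound RAS was captured at about 100–300 RU. Running buffer: HBS pH 7.4, 10 mM MgCl2, 10 µM GDP, 1 mM DTT, 0.01% Tween 20, 4% DMSO.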

[4] = molecular target: GDP-bound NRAS wild-type protein (Homo sapiens, UniProt P01111); assay: Binding to NRAS by surface plasmon resonance (SPR), KD and KD ratio to KRAS
Chain of GDP-bound NRAS wild-type protein (P01111 whole entry): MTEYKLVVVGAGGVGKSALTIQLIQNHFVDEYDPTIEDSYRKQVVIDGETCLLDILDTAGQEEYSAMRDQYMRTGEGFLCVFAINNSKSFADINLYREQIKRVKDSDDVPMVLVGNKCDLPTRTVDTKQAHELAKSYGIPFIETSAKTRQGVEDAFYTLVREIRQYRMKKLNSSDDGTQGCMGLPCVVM
Procedure, shortened: as §1

[5] = Single Cycle Kinetics, 1:1 binding model
[6] = 50% proliferation inhibitory concentration, four days
[7] = ratio of KD with respect to HRAS wild-type protein to KD with respect to KRAS
[8] = ratio of KD with respect to GDP-bound NRAS wild-type protein to KD with respect to KRAS
[9] = ratio of KD for HRAS wild-type protein to KD for KRAS
[10] = ratio of KD for GDP-bound NRAS wild-type protein to KD for KRAS

Chain of GDP-bound KRAS wild-type protein (P01116 1-188 isoform P01116-2): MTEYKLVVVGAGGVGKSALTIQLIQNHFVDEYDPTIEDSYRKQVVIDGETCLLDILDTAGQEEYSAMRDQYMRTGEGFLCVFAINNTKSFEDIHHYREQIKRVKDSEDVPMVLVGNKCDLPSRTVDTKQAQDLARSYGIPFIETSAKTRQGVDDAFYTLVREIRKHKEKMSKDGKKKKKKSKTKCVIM

| Compound | pKd [1, 5] | pIC50 [2, 6] | HRAS /KRAS [3, 7] | NRAS /KRAS [4, 8] | pKd ([1]; Single Cycle Kinetics) | pIC50 ([2]; NCI-H441 cells, 4 days) | HRAS /KRAS [3, 9] | NRAS /KRAS [4, 10] | pKd ([1]; 1:1 binding model) |
| --- | --- | --- | --- | --- | --- | --- | --- | --- | --- |
| CCC[C@H]1C(=O)N[C@@H]([C@@H](C)CC)C(=O)N(C)CC(=O)N(C)[C@H]2C/C=C\CCN(C2=O)[C@@H](Cc2ccc(C(F)(F)F)cc2)C(=O)N(C)CC(=O)N[C@@H](CCc2ccc(C(F)(F)F)c(OC)c2)C(=O)N2C[C@H](OCC)C[C@H]2C(=O)NC2(CCC2)C(=O)N(C)[C@@H](C(CC)CC)C(=O)N(C)[C@H](C(=O)N(C)C)CC(=O)N1C [PP1208] | 9.77 | 7.61 | A (a compound having 10 or more and less than 20 is denoted as A) | AA (a compound having 20 or more is denoted as AA) | – | – | – | – | – |
| C#CCN1CC(=O)N(C)[C@H]2C/C=C\CCN(C2=O)[C@@H](Cc2ccc(C(F)F)cc2)C(=O)N(C)CC(=O)N[C@@H](CCc2cc(F)c(C(F)(F)F)c(F)c2)C(=O)N2C[C@H](OC(C)C)C[C@H]2C(=O)N(C)C2(CCC2)C(=O)N(C)[C@@H](C(CC)CC)C(=O)N(C)[C@H](C(=O)N(C)C)CC(=O)N(C)[C@@H](COCCC)C(=O)N[C@@H]([C@@H](C)OC)C1=O [PP3485] | – | – | – | – | 9.12 | 7.92 | A (a compound having 10 or more and less than 20 is denoted as A) | A (a compound having 10 or more and less than 20 is denoted as A) | – |
| CCO[C@@H]1C[C@H]2C(=O)NC3(CCC3)C(=O)N(C)[C@@H](C3CCCC3)C(=O)N(C)[C@H](C(=O)N(C)C)CC(=O)N(C)[C@@H](Cc3cccc(C#N)c3)C(=O)N[C@@H]([C@@H](C)CC)C(=O)N(C)CC(=O)N(C)[C@H]3CCCCCN(C3=O)[C@@H](Cc3ccc(F)cc3)C(=O)N(C)CC(=O)N[C@@H](CCc3cc(F)c(C(F)(F)F)c(F)c3)C(=O)N2C1 [PP1156] | 10.20 | 7.47 | B (a compound having 3 or more and less than 10 is denoted as B) | B (a compound having 3 or more and less than 10 is denoted as B) | – | – | – | – | – |
| CCO[C@@H]1C[C@H]2C(=O)NC3(CCC3)C(=O)N(C)[C@@H](C3CCCC3)C(=O)N(C)[C@H](C(=O)N(C)C)CC(=O)N(C)[C@@H](CC(C)C)C(=O)N[C@@H]([C@@H](C)CC)C(=O)N(C)CC(=O)N(C)[C@H]3C/C=C\CCN(C3=O)[C@@H](Cc3ccc(C)cc3)C(=O)N(C)CC(=O)N[C@@H](CCc3cc(F)c(C(F)(F)F)c(F)c3)C(=O)N2C1 [PP1414] | 10.13 | 8.36 | B (a compound having 3 or more and less than 10 is denoted as B) | A (a compound having 10 or more and less than 20 is denoted as A) | – | – | – | – | – |
| CCO[C@@H]1C[C@H]2C(=O)NC3(CCC3)C(=O)N(C)[C@@H](C3CCCC3)C(=O)N(C)[C@H](C(=O)N(C)C)CC(=O)N(C)[C@@H](CC(C)C)C(=O)N[C@@H]([C@@H](C)CC)C(=O)N(C)CC(=O)N(C)[C@H]3C/C=C\CCN(C3=O)[C@@H](Cc3ccc(C(F)(F)F)cc3)C(=O)N(C)CC(=O)N[C@@H](CCc3ccc(Cl)c(Cl)c3)C(=O)N2C1 [PP1251] | 9.74 | 7.99 | A (a compound having 10 or more and less than 20 is denoted as A) | AA (a compound having 20 or more is denoted as AA) | – | – | – | – | – |
| CCC[C@H]1C(=O)N[C@@H]([C@@H](C)CC)C(=O)N2CCC[C@H]2C(=O)N(C)[C@H]2C/C=C\CCN(C2=O)[C@@H](Cc2ccc(C)cc2)C(=O)N(C)CC(=O)N[C@@H](CCc2cc(F)c(C(F)(F)F)c(F)c2)C(=O)N2CC[C@H](OC)[C@H]2C(=O)N(C)C2(CCC2)C(=O)N(C)[C@@H](C2CCCC2)C(=O)N(C)[C@H](C(=O)N(C)C)CC(=O)N1C [PP3286] | – | – | – | – | 9.82 | 7.94 | A (a compound having 10 or more and less than 20 is denoted as A) | A (a compound having 10 or more and less than 20 is denoted as A) | – |
| CCCO[C@@H]1C[C@H]2C(=O)NC3(CC(C)(C)C3)C(=O)N(C)[C@@H](C3CCCC3)C(=O)N(C)[C@H](C(=O)N(C)CC)CC(=O)N(C)[C@@H](COCC)C(=O)N[C@@H]([C@@H](C)CC)C(=O)N3C[C@@H](C)C[C@H]3C(=O)N(C)[C@H]3C/C=C\CCN(C3=O)[C@@H](Cc3ccc(C(F)(F)F)cc3)C(=O)N(C)CC(=O)N[C@@H](CCc3ccc(C(F)(F)F)c(OC)c3)C(=O)N2C1 [PP3415] | – | – | – | – | 8.60 | 7.32 | A (a compound having 10 or more and less than 20 is denoted as A) | A (a compound having 10 or more and less than 20 is denoted as A) | – |
| CCC[C@H]1C(=O)N[C@@H]([C@@H](C)CC)C(=O)N(C2CC2)CC(=O)N(C)[C@H]2C/C=C\CCN(C2=O)[C@@H](CC2CCC(F)(F)CC2)C(=O)N(C)CC(=O)N[C@@H](CCc2ccc(Cl)c(Cl)c2)C(=O)N2C[C@H](OC(C)C)C[C@H]2C(=O)NC2(CC(C)(C)C2)C(=O)N(C)[C@@H](C2CCCC2)C(=O)N(C)[C@H](C(=O)N(C)C)CC(=O)N1C [PP2521] | – | – | – | – | – | 6.89 | A (a compound having 10 or more and less than 20 is denoted as A) | A (a compound having 10 or more and less than 20 is denoted as A) | 8.55 |

From EP4603105A1, “PHARMACEUTICAL COMPOSITION CONTAINING CYCLIC COMPOUND HAVING SELECTIVE KRAS INHIBITORY EFFECT AGAINST HRAS AND NRAS” (CHUGAI SEIYAKU KABUSHIKI KAISHA, priority 2022, dated 2024)
